In series [1] the target is T1, NR1-1a/NR2B NMDA receptor (Rattus norvegicus, UniProt P35439+Q00960).
T1 construct: expressed in transfected cells; host or cells: HEK293 cells (ATCC CRL1573)
The experiment in a line: Patch-clamp inhibition of glutamate-evoked currents at recombinant NMDA receptors in transfected HEK293 cells. Format: cell-based. Here is the method:
Transfected cells were identified by means of fluorescent green protein (GFP) fluorescence. Its genus was transfected together with the both receptor subunit genes.
Steroid-containing solutions were prepared from fresh solution (20 mmol·l^−1, of steroid dissolved in dimethyl sulfoxide, DMSO), which was added to the extracellular solution containing 1 mmol·l^−1 glutamic acid and 10 μmol·l^−1 of glycine. Identical concentrations of DMSO were added to all other extracellular solutions.
Current responses produced by extracellular application of glutamic acid solution (1 mmol·l^−1) were measured from the whole cell by patch-clamp technique, which is used for the study of transport of charged particles through model and also natural biological membranes. The currents were measured at membrane potential maintained at −60 mV and +60 mV.
Same amounts (0.3 μg) of cDNA coding NR1, NR2 and GFP (green fluorescent protein) (pQBI 25, Takara, Japan) were mixed with 0.9 μl of Matra-A Reagent (IBA, Göttingen, Germany) and added to confluent HEK293 cells cultivated in v 24-pit cultivating plate. After trypsination, the cells were re-suspended in Opti-MEM® I containing 1% fetal bovine serum. Subsequently, 20 mmol·l^−1 MgCl2, 1 mmol l^−1 D,L-2-amino-5-phosphonopentanoic acid, 3 mmol·l^−1 kynurenic acid was added to the mixture and cells were inoculated on the polylysine-coated glass plates having 25 mm in diameter. The following genes coding NMDA receptor subunits were used for transfection: NR1-1 a (GenBank accession No. U08261) and NR2B (GenBank accession No. M91562).
HEK293 Cultured cells were used for electrophysiological investigations with a latency of 16-40 h after transfection. Whole-cell currents were measured by patch-clamp amplifier (Axopatch 1D; Axon Instruments, Inc. Foster City, USA) after capacitance and serial resistance (<10 MΩ) compensation to 80-90%. Agonist-induced responses were filtered to 1 kHz (8-pole Bessel filter; Frequency Devices, Haverhill, USA), digitized with sampling frequency of 5 kHz and analyzed by pClamp version 9 software (Axon Instruments, USA). […] Extracellular solution (ECS) contained 160 mmol·l^−1 sodium chloride, 2.5 mmol·l^−1 potassium chloride, 10 mmol·l^−1 HEPES, 10 mmol·l^−1 glucose, 0.2 mmol·l^−1 EDTA a 0.7 mmol·l^−1 calcium chloride (pH adjusted to 7.3 by sodium hydroxide solution). Glycine was added to both testing and control solution. Moreover, bicuculline (10 μmol·l^−1) and tetrodotoxin (0.5 μmol·l^−1) was added to hippocampal cultures. Steroid-containing solutions were prepared from fresh solution (20 mmol·l^−1) of steroid dissolved in dimethyl sulfoxide (DMSO). Same concentrations of DMSO were used in all extracellular solutions. Control and experimental solutions were applied via microprocessor-controlled perfusion system with approx. rate of solution exchange in areas adjacent to cells reaching ˜10 ms.
Current responses produced by 100 μmol·l^−1 of NMDA (in the case of hipocampal neurones), or by 1 mmol·l^−1 of glutamate (on recombinant NMDA receptors) were measured at membrane potential maintained at −60 mV. […] Relative effect of steroid-induced inhibition was used for calculating IC50.

Setting [2] is: HEK293, read-out: Mean % change ± SD.
The mark [3] stands for this setting: calculated from relative steroid-induced inhibition, Hill's coefficient 1.2, read-out: IC50.

Structures can show the parent of a compound that is named as a salt. Where two headings read alike, the source gives them in different places.

In general, IC50 refers to the concentration that gives 50% inhibition. By melting point is commonly meant the temperature, or range, at which the solid turns liquid.

T1 sequence (Q00960 27-1482, other chains not shown): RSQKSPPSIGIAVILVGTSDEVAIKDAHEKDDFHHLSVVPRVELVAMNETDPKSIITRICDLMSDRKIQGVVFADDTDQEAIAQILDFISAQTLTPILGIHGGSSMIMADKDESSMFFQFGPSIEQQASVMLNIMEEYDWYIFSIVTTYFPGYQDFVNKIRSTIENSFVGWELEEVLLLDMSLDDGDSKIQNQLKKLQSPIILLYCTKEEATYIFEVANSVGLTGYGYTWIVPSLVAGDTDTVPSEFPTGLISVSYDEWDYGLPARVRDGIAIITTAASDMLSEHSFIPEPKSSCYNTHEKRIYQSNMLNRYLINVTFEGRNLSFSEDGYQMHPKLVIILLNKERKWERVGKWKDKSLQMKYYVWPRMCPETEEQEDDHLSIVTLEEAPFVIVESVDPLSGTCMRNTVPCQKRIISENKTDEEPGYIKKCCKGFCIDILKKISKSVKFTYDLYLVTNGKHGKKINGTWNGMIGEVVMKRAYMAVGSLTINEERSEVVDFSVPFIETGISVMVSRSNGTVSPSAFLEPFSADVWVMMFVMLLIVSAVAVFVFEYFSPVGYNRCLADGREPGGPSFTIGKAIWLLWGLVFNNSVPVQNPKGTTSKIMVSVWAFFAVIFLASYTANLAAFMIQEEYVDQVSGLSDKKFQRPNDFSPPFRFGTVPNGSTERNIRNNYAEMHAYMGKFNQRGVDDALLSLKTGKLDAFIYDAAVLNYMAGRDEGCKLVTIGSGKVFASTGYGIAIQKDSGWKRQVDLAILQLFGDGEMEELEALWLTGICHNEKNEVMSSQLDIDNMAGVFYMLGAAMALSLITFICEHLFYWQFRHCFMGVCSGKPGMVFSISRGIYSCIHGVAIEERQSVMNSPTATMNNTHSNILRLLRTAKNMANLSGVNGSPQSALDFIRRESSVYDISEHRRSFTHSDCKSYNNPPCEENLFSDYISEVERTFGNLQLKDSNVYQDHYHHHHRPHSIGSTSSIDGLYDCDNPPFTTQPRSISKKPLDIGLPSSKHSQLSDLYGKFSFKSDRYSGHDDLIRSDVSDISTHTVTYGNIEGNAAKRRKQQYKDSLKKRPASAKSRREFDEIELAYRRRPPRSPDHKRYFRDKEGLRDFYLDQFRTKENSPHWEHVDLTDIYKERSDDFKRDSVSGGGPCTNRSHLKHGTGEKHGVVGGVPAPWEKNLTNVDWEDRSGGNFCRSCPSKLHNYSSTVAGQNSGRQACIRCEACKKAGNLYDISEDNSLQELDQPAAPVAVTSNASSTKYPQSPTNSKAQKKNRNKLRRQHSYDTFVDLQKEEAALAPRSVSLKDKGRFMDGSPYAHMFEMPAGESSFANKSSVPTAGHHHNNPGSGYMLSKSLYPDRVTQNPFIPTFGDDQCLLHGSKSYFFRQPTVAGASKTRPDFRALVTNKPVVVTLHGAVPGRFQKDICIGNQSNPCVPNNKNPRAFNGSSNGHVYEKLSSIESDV

For `C[C@H]1CC[C@H]2[C@@H]3CC[C@@H]4C[C@H](NC(=O)C(=O)[O-])CC[C@]4(C)[C@H]3CC[C@]12C.[Na+]` [Compound 138, Sodium 2-oxo-2-(((3R,5R,8S,9S,10S,13R,14S,17S)-10,13,17-trimethylhexadecahydro-1H-cyclopenta[a]phenanthren-3-yl)amino)acetate], the melting point was 330 to 334.6 °C. Also, the inhibition at 1 µM in series [1] (setting [2]) worked out at 17.5 ± 1.8%. Moreover, in series [1] (setting [3]), the IC50 was 3.7 µM.

In turn, `C[C@@H]1CC[C@H]2[C@@H](CC[C@@H]3C[C@H](OC(=O)CCC(=O)O)CC[C@@]32C)C1` [Compound 34, 4-(((2R,4aS,4bS,7R,8aS,10aR)-4a,7-Dimethyltetradecahydrophenanthren-2-yl)oxy)-4-oxobutanoic acid] showed a melting point of 119 to 121 °C. The inhibition at 10 µM in series [1] (HEK293, steroid concentration 10 μmol·l^−1, 1 mmol·l^−1 glutamate, −60 mV, read-out: Mean % change ± SD) was 27 ± 10%. The concentration for half-maximal inhibition (IC50) in series [1] (setting [3]) is 23.2 µM.

On to `C[C@]12CC[C@@H](CC(=O)O)C[C@H]1CC[C@@H]1[C@@H]2CC[C@]2(C)C(=O)CC[C@@H]12` [Compound 74, 2-((3R,5R,8R,9S,10S,13S,14S)-10,13-Dimethyl-17-oxohexadecahydro-1H-cyclopenta[a]phenanthren-3-yl)acetic acid], for which the melting point lay in the range of 130 to 133 °C. In addition, in series [1] (setting [2]), the inhibition at 50 µM was 58.6 ± 9.3%. Besides, the IC50 in series [1] (setting [3]) is 38.7 µM.

In the case of `C=C(C)[C@H]1CC[C@H]2[C@@H]3CC[C@@H]4C[C@H](OC(=O)CCC(=O)O)CC[C@]4(C)[C@H]3CC[C@]12C`, the melting point is 148 to 149.5 °C.

Turning to `C=C1CC[C@H]2[C@@H]3CC[C@@H]4C[C@H](OC(=O)C[N+](C)(C)C)CC[C@]4(C)[C@H]3CC[C@]12C` (as salt: chloride) [Compound 76, 2-(((3R,5R,8R,9S,10S,13S,14S)-10,13-Dimethyl-17-methylenehexadecahydro-1H-cyclopenta[a]phenanthren-3-yl)oxy)-N,N,N-trimethyl-2-oxoethan-1-ammonium chloride], the melting point lay within 175 to 177 °C.

In turn, `C[C@@H]1CC[C@H]2[C@@H](CC[C@@H]3C[C@H](OS(=O)(=O)O)CC[C@@]32C)C1` (as salt: salt) [Compound 35, Pyridinium (2R,4aS,4bS,7R,8aS,10aR)-4a,7-dimethyltetradecahydrophenanthren-2-yl 2-sulfate] displayed a melting point of 147 to 149 °C.

In the case of `CC[C@@H](C)C1CC[C@H]2[C@@H]3CC[C@@H]4C[C@H](NC(=O)CC(=O)O)CC[C@]4(C)[C@H]3CC[C@]12C` (stereo partly drawn) [Compound 149, 3-(((3R,5R,8R,9S,10S,13R,14S)-17-((R)-Sec-butyl)-10,13-dimethylhexadecahydro-1H-cyclopenta[a]phenanthren-3-yl)amino)-3-oxopropanoic acid], the melting point lay within 163 to 165 °C. Moreover, the inhibition at 10 µM in series [1] (setting [2]) worked out at 33.6 ± 6.1%. The IC50 in series [1] (setting [3]) was 18.3 µM.

`C[C@@]12CCCCC1[C@@H]1CC[C@@H]3C[C@H](OC(=O)CCC(=O)O)CC[C@]3(C)[C@H]1CC2` (stereo partly drawn) [Compound 103, 4-(((2R,4aS,4bS,6aS,10bS,12aR)-4a,6a-Dimethyloctadecahydrochrysen-2-yl)oxy)-4-oxobutanoic acid] had a melting point of 136 to 138 °C.

`C[C@]12CC[C@@H](OS(=O)(=O)O)C[C@H]1CC[C@@H]1[C@@H]2CC[C@]2(C)[C@@H](I)CC[C@@H]12` (as salt: salt) [Compound 93, Pyridinium (3R,5R,8R,9S,10S,13S,14S,17S)-17-iodo-10,13-dimethylhexadecahydro-1H-cyclopenta[a]phenanthren-3-yl 3-sulfate] showed a melting point of 118 to 120 °C.

The compound `C[C@@]12CCC[C@H]1[C@@H]1CC[C@@H]3C[C@H](OC(=O)[C@@H](N)CCCNC(=N)N)CC[C@]3(C)[C@H]1CC2.Cl.Cl` registered a melting point of 238 to 240 °C.

`C=C1C[C@H]2[C@@H]3CC[C@@H]4C[C@H](OS(=O)(=O)O)CC[C@]4(C)[C@H]3CC[C@]2(C)C1` (as salt: salt) [Compound 114, Pyridinium (3R,5R,8S,9S,10S,13R,14S)-10,13-dimethyl-16-methylenhexadekhydro-1H-cyclopenta[a]phenanthren-3-yl 3-sulfate] displayed a melting point of 180 to 182 °C.

The compound `CC12CCCCC1C1CCC3CC(OS(=O)(=O)O)CCC3(C)C1CC2` (as salt: salt) [Compound 101, Pyridinium (2R,4aS,4bS,6aS,10bS,6aS,12aR)-4a,6a-dimethyloctadecahydrochrysen-2-yl 2-sulfate] had a melting point of 173 to 174 °C.

`C=C(C)[C@H]1CC[C@H]2[C@@H]3CC[C@@H]4C[C@H](OC(=O)CC(=O)O)CC[C@]4(C)[C@H]3CC[C@]12C` [Compound 88, 3-(((3R,5R,8R,9S,10S,13S,14S,17R)-10,13-Dimethyl-17-(prop-1-en-2-yl)hexadecahydro-4H-cyclopenta[a]phenanthren-3-yl)oxy)-3-oxopropanoic acid] came in with a melting point of 147.7 to 148.3 °C. Also, in series [1] (setting [2]), the inhibition at 10 µM stood at 46 ± 0.9%. In series [1] (setting [3]), the IC50 was 11.8 µM.

Take `COC(=O)[C@@]1(C)CC[C@H]2[C@@H](CC[C@@H]3C[C@H](OS(=O)(=O)O)CC[C@@]32C)C1` (as salt: sulfate) [Compound 40, Methyl (2S,4aS,4bS,7R,8aR,10aS)-2,4b-dimethyl-7-(sulfooxy)tetradecahydrophenanthren-2-carboxylate]: the melting point is 115 to 118 °C.

The compound `C[C@@]12CCC[C@H]1[C@@H]1CC[C@@H]3C[C@H](NC(=O)CC(=O)O)CC[C@]3(C)[C@H]1CC2` [Compound 61] returned a melting point of 126 to 128 °C. The IC50 in series [1] was 15.4 µM. Further, in series [1] (setting [2]), the inhibition at 10 µM was 40 ± 5.7%.

For `CC[C@@H](C)C1CC[C@H]2[C@@H]3CC[C@@H]4C[C@H](NC(=O)C(=O)[O-])CC[C@]4(C)[C@H]3CC[C@]12C.[Na+]` (stereo partly drawn) [Compound 148, Sodium 2-(((3R,5R,8R,9S,10S,13R,14S)-17-((R)-sec-butyl)-10,13-dimethylhexadecahydro-1H-cyclopenta[a]phenanthren-3-yl)amino)-2-oxoacetate], the melting point was 182 to 184 °C (dec.). For the same compound, the inhibition at 1 µM in series [1] (setting [2]) was 7.3 ± 3%. Moreover, the IC50 in series [1] (setting [3]) was 9.4 µM.

Take `COC[C@@]1(C)CC[C@H]2[C@@H](CC[C@@H]3C[C@H](OC(=O)CCC(=O)O)CC[C@@]32C)C1` [Compound 45, 4-(((2R,4aS,4bS,7S,8aS,10aR)-7-(Methoxymethyl)-4a,7-dimethyltetradecahydrophenanthren-2-yl)oxy)-4-oxobutanoic acid]: the melting point was 107 to 109 °C.

`C[C@H]1CC[C@H]2[C@@H]3CC[C@@H]4C[C@H](NC(=O)CC(=O)O)CC[C@]4(C)[C@H]3CC[C@]12C` [Compound 140, 3-Oxo-3-(((3R,5R,8S,9S,10S,13R,14S,17S)-10,13,17-trimethylhexadecahydro-1H-cyclopenta[a]phenanthren-3-yl)amino)propanoic acid] returned a melting point of 147.8 to 149.4 °C. For the same compound, in series [1] (setting [2]), the inhibition at 1 µM was determined as 17.8 ± 6.5%. Besides, in series [1] (setting [3]), the IC50 was 3.9 µM.

With `C[C@]12CC[C@@H](OS(=O)(=O)O)C[C@H]1CC[C@@H]1[C@@H]2CC[C@@]2(C)[C@H]1CCC2(F)F` (as salt: salt) [Compound 95, Pyridinium (3R,5R,8R,9S,10S,13S,14S)-17,17-difluoro-10,13-dimethylhexadecahydro-1H-cyclopenta[a]phenanthren-3-yl 3-sulfate], the melting point was 185 to 187 °C.

With `COC(=O)C1(C)CCC2C(CCC3CC(OS(=O)(=O)O)CCC32C)C1C` (as salt: salt) [Compound 22, Pyridinium (2R,4aS,7S,8S,10aR)-7-(methoxycarbonyl)-4a,7,8-trimethyltetra-decahydrophenanthren-2-yl 2-sulfate], the melting point fell in the range of 145 to 147 °C.

`C=C1CC[C@H]2[C@@H]3CC[C@@H]4C[C@H](OC(=O)CCCCC(=O)O)CC[C@]4(C)[C@H]3CC[C@]12C` yielded a melting point of 100 to 102 °C.

Source of the values: patent US10017535B2, “Amphiphilic compounds with neuroprotective properties” (USTAV ORGANICKE CHEMIE A BIOCHEMIE AV CR, v.v.i., priority 2014, dated 2018).
